Laboratory results: patent US5525626A (priority 1989, dated 1996)

Tests used:
[1] = tested on: T4 lymphocytes; details: low concentrations; cited from earlier work
[2] = tested on: U 178 MG, TP 410 N, TP 242 MG, TP 336 MG and A 431 cells; details: coumarin in the corresponding concentrations
Experimental: (§1) The neuroblastoma cell line and the three glioblastoma cell lines were cultivated in Ham's F10 medium enriched with 10% fetal calf serum (FCS) and the usual quantity of penicillin, streptomycin (Pen/Strep) and glutamine. The epidermoidal cell line was cultivated in modified Eagle's Medium (MEM), likewise enriched with 10% (FCS) and the usual quantity of glutamine and Pen/Strep.
Untreated cells served as a control. Subsequently, the cells were incubated for 8 hours with ^3 H-thymidine. The radioactivity absorbed by the cells was measured in the usual way.

[3] = tested on: U 178 MG, TP 410 N, TP 242 MG, TP 336 MG and A 431 cells; assay: growth curves of five tumor cell lines, comparison with coumarin; assay type: cell-based, human; details: corresponding concentrations, up to 12 days
Experimental: as §1
In each case 5×10^4 cells were plated out in T25 bottles, the untreated cells being incubated in analogous conditions as control. The cell count was microscopically determined after 3, 5, 7, 10 and 12 days.

[4] = tested on: malignant cell growth; details: cited from earlier work
[5] = tested on: LNCap cells; assay: cell growth in combination with testosterone; assay type: cell-based, human; details: FIG. 9

## O=P1(N(CCCl)CCCl)NCCCO1 (stereo not drawn) [cyclophosphamide]
[1]
  biological activity of T4 lymphocytes: inhibits the biological activity of T4 lymphocytes

## O=c1ccc2ccccc2o1 [coumarin, 1,2-Benzopyrone, reference compound]
[2]
  difference from control in pre-trial: no significant difference could be observed
[3]
  growth-inhibiting activity (growth curve) versus control: no significant difference could be observed
[4]; cell cultures and animal experiments
  malignant cell growth: inhibits malignant cell growth in cell cultures and in animal experiments
[4]; compared with biological activity
  side-effects in mammals: side-effects in the case of mammals are to be disregarded compared with biological activity

## O=c1oc2ccccc2cc1O [3-OH-1,2-BP, reference compound]
[5]
  effect on cell growth, comparison compound: essentially ineffective
